# Data published in patent US12037343B2, “Process for the preparation of sodium (2r,5s,13ar)-7,9-dioxo-10-((2,4,6,-trifluorobenzyl)carbamoyl)-2,3,4,5,7,9,13,13A-octahydro-2,5-methanopyrido[1′,2′:4,5]pyrazino[2,1-B] [1,3] oxazepin-8-olate and its polymorphic form” (Honour Lab Limited, priority 2018, dated 2024).
# Where two headings read alike, the source gives them in different places.
# Type: physicochemical
# Method: The stability of sample was tested by storing the samples at 40° C./75% relative humidity (RH) and 25° C./60% RH for 6 months. The stability of samples was tested by PXRD, HPLC and water content was measured by Karl Fischer method.
structure (smiles),measurement,setting,value
"O=C(NCc1c(F)cc(F)cc1F)c1cn2c(c(O)c1=O)C(=O)N1[C@H]3CC[C@H](C3)O[C@@H]1C2 [Form HN-1, sodium (2R,5S,13aR)-7,9-dioxo-10-((2,4,6-trifluorobenzyl)carbamoyl)-2,3,4,5,7,9,13,13a-octahydro-2,5-methanopyrido [1′,2′:4,5]pyrazino[2,1-b][1,3] oxazepin-8-olate]","stability (PXRD pattern, water content, purity after storage)",,physically and chemically stable
same,Physical form (as assessed by PXRD),"4 month, 25° C./60% RH",Crystalline
same,Purity by HPLC,"4 month, 25° C./60% RH",99.78%
same,Water content by Karl Fischer method,"4 month, 25° C./60% RH",3.7%
same,Physical form (as assessed by PXRD),"4 month, 40° C./75% RH",Crystalline
same,Purity by HPLC,"4 month, 40° C./75% RH",99.78%
same,Water content by Karl Fischer method,"4 month, 40° C./75% RH",3.6%
same,Physical form (as assessed by PXRD),"5 month, 25° C./60% RH",Crystalline
same,Purity by HPLC,"5 month, 25° C./60% RH",99.78%
same,Water content by Karl Fischer method,"5 month, 25° C./60% RH",3.9%
same,Physical form (as assessed by PXRD),"5 month, 40° C./75% RH",Crystalline
same,Purity by HPLC,"5 month, 40° C./75% RH",99.77%
same,Water content by Karl Fischer method,"5 month, 40° C./75% RH",3.9%
same,Physical form (as assessed by PXRD),"6 month, 25° C./60% RH",Crystalline
same,Purity by HPLC,"6 month, 25° C./60% RH",99.78%
same,Water content by Karl Fischer method,"6 month, 25° C./60% RH",3.8%
same,Physical form (as assessed by PXRD),"6 month, 40° C./75% RH",Crystalline
same,Purity by HPLC,"6 month, 40° C./75% RH",99.78%
same,Water content by Karl Fischer method,"6 month, 40° C./75% RH",3.8%
same,Physical form (as assessed by PXRD),Initial,Crystalline
same,Purity by HPLC,Initial,99.82%
same,Water content by Karl Fischer method,Initial,4.2%
